Measurements from US20230218573A1, “INDOLE COMPOUNDS FOR THE TREATMENT OF NEURODEGENERATIVE DISEASES” (GALYAN BIO, INC., priority 2020, published 2023).
Entries after “also recorded” stand apart in the source; their conditions may differ.

Assays:
[1] = Pharmacokinetics, plasma and brain concentration by UHPLC-TOF; type: in vivo, mice
Protocol: Compound 22 is an analog of Compound 7. […] Compound 22 pharmacokinetic properties was measured in three male CD1 mice at several timepoints. Compound 22 was dissolved in 10% DMSO, 10%, cremaphor, and 80% saline. The tested dose was 33.3 mg/kg body weight. Brain tissue was homogenized and protein precipitated with acetonitrile. […] As such, Compound 22 was selected for testing in an animal model of HD the R6/2 model. As described below, Compound 22 and its analogs were further tested for their effects on striatal cell viability and effects of mHTT levels.

[2] = test system: STHdh 7/7 striatal cells; experiment: Cell viability of heat shocked STHdh 7/7 striatal cells; type: cell-based, mouse; settings: Mus musculus, 48 hours treatment, read-out: Cell Viability striatal cells 3h heat shocked
Protocol: RESULTS - Table 7b summarizes the effect of the compounds on cell viability. STHdh 7/7 were heat shocked for 3 hours and treated for 48 hours with small molecule compounds. Table 2 lists the cell viability in striatal cells after 48 hours.
Effect of Compound 22 on Cell Viability of Wildtype Striatal Neurons - STHdh 7/7 cells are striatal cells that express wildtype huntingtin. These cells were cultured in the same conditions as described above for STHdh 111/111. The neurons were first heat shocked for 3 hours at 41° C. as described above. After 48 hours of treatment with the small molecule Compounds, cell viability was determined using the method described above. The “buffer” control is represents cells treated with a buffer only, without any compounds added. Some of the compounds show higher cell viability in comparison to control heat shocked STHdh 7/7 neurons with buffer and no treatment (FIG. 9).

[3] = test system: LC3 (autophagic flux); experiment: Autophagic flux and LC3 stained area in STHdh 111/111 cells; type: cell-based, mouse
Protocol: Staining - Cells were permeabilized with 0.3% Triton X-100 in 4° C. PBS (pH 7.4 from ThermoFisher) for 10 minutes. Then the cells were washed two times with 4° C. PBS. Subsequently, cells are blocked with 3% NGS (normal goat serum from Thermo Fisher) in 4° C. PBS for 1 hour. Cells were incubated with primary antibodies in blocking buffer (PBS, 3% NGS, 0.02% NaN3) over night at 4° C. Primary antibodies were mouse antipolyglutamine monoclonal antibody 3B5H10 (Sigma-Aldrich) at 1:250 dilution and Guinea Pig anti-MAP2 polyclonal antibody (Synaptic Systems) at 1:500 dilution. […]
Fluorescence Imaging - Imaging sessions were performed on a confocal microscope system (Carl Zeiss Microscopy) equipped with a dual spinning disk unit (Yokogawa). […] The fluorescence images obtained of the immunofluorescence labelled tissue sections were quantified with the help of the “Image Processing and Analysis in Java” or short ImageJ software distributed under the GNU General Public License by the NIH (Rueden, C.T. et al., BMC Bioinformatics. 2017 Nov 29;18(1):529), i.e. the edition used was the Fiji distribution (Schindelin, J. et al., Nature methods. 2012 Jun 28;9(7):676-82). […]
Autophagic flux was calculated as the area stained with LC3 antibody per cell in STHdh 111/111 with autophagy inhibitor NH4Cl minus area stained with LC3 antibody per cell in STHdh 111/111 without the autophagy inhibitor NH4Cl.

[4] = test system: Olig2; experiment: Nanostring gene expression in STHdh 111/111 cells: Olig2; type: cell-based, mouse; settings: treated STHdh 111/111 (Q111-10), 48 h; in comparison to untreated STHdh 111/111
Protocol: Gene expression of certain transcripts of interest were measured using Nanostring Technology. […] Some STHdh 7/7 and STHdh 111/111 cell samples were not heat shocked and some wells were treated with Compound 22 at the indicated concentration on for 48 hours (Table 12). Some STHdh 7/7 and STHdh 111/111 cell samples were heat shocked for 3 hours some wells were treated with Compound 22 at the indicated concentration on for 48 hours (Table 13). Cells are washed with PBS, trypsinised, and gathered in a 15 ml falcon tube. After a short spin down for 3 minutes at 300 g, the cell pellet was washed with PBS once, before it was frozen down in liquid nitrogen. RNA was extracted with a standard protocol. The nCounter® Mouse Neuropathology Panel (Nanostring, Seattle) was used for gene expression analysis according to the manufacturer’s protocols.

Cc1[nH]c2ccc(C(=O)NCCN(C(C)C)C(C)C)cc2c1C [Compound 22]
penetration of the blood brain area in vivo ([1]; male CD1 mice, 33.3 mg/kg body weight, 33.3 mg/kg): penetrates the blood brain area; also recorded: can penetrate the blood brain area in vivo
crossing of the blood brain barrier ([1]; mouse, in vivo): can cross the blood brain barrier
viability at 10 µM [2]: 34.9%
autophagic flux ([3]; STHdh 111/111, LC3 area with NH4Cl minus without NH4Cl): positive autophagic flux
LC3 stained area ([3]; STHdh 111/111 neurons): decreased
Olig2 expression [4]: doubled
